The values that follow are results of earlier work, collected in patent publication US20160199302A1, “Pharmaceutical Composition Comprising Temozolomide With Improved Stability and Process for Manufacturing the Same” (Samyang Biopharmaceuticals Corporation, priority 2012, published 2016).

Each structure is given as a SMILES string.

For this data set the following is noted: background.

As to `Cn1nnc2c(C(N)=O)ncn2c1=O` [temozolomide, 3,4-dihydro-3-methyl-4-oxoimidazo[5,1-d]-as-tetrazine-8-carboxamide], the Solubility in water entry was “water-insoluble”.
